Source: patent US10265422B2, “Ethylenediaminetetraacetic acid bis(amide) derivatives and their respective complexes with Mn(II) ion for use as MRI contrast agent” (BRACCO IMAGING S.P.A., priority 2015, dated 2019)
Like-named read-outs stand apart in the source and are kept apart here.

How the values were obtained:
[1] = Relaxivity r1 in water at 20 MHz; type: physicochemical; conditions: absence of HSA
[2] = biological target: human serum albumin (HSA) (Homo sapiens, UniProt P02768); conditions: presence of HSA, 20 MHz
[3] = Decomplexation of Mn(II) complexes: transmetallation with Cu2+ ions followed by spectrophotometry; type: physicochemical; conditions: pH 7.4, 25 °C, read-out: t½ (half-life of decomplexation) (converted)
Experimental: These studies were performed by following the transmetallation reaction between the Mn^2+ based complexes and Cu^2+ ions by spectrophotometry as reported in […]. Inorganic Chemistry (2012), 51, 10065-7.

[4] = calculated using rate constants

Sequence of human serum albumin (HSA) (P02768 25-609): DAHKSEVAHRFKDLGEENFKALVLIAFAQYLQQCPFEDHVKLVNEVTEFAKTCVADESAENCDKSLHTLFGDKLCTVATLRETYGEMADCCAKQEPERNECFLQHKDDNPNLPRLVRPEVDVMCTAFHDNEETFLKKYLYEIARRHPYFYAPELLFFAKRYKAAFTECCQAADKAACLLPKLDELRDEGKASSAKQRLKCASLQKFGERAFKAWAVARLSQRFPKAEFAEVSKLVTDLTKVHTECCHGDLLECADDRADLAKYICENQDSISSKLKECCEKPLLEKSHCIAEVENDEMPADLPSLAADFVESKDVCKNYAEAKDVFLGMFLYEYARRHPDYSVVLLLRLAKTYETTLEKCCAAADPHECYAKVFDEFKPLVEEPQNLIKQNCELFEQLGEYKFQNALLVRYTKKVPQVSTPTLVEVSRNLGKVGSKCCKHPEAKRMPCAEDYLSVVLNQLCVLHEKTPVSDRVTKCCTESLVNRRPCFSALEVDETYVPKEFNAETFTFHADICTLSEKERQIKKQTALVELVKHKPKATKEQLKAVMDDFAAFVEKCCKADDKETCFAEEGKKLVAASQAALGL

| Compound | r1 (relaxivity) ([1]; 25 °C) | r1 (relaxivity) ([1]; 37 °C) | r1 HSA (relaxivity) ([2]; 25 °C) | r1 HSA (relaxivity) ([2]; 37 °C) | half-life [3, 4] | half-life ([3]; footnote: half-life in seconds) |
| --- | --- | --- | --- | --- | --- | --- |
| O=C(O)CN(CC(=O)N1CCOCC1)C1CCCCC1N(CC(=O)O)CC(=O)N1CCOCC1 (stereo not drawn) | 3.77 mM⁻¹ s⁻¹ | 2.95 mM⁻¹ s⁻¹ | 7.64 mM⁻¹ s⁻¹ | 6.57 mM⁻¹ s⁻¹ |  |  |
| CCCCNC(=O)CN(CC(=O)O)C1CCCCC1N(CC(=O)O)CC(=O)NCCCC (stereo not drawn) [drawing 39] |  |  |  |  | 57 h |  |
| O=C(O)CN(CC(=O)N1CCCCC1)c1ccccc1N(CC(=O)O)CC(=O)N1CCCCC1 [drawing 40] |  |  |  |  |  | 0.0231 h |
| O=C(O)CN(CC(=O)N1CCC(Cc2ccccc2)CC1)c1ccccc1N(CC(=O)O)CC(=O)N1CCC(Cc2ccccc2)CC1 [drawing 28] | 5.29 mM⁻¹ s⁻¹ | 4.04 mM⁻¹ s⁻¹ | 28.20 mM⁻¹ s⁻¹ | 23.84 mM⁻¹ s⁻¹ |  |  |
| O=C(O)CN(CC(=O)N1CCC(C(=O)O)CC1)C1CCCCC1N(CC(=O)O)CC(=O)N1CCC(C(=O)O)CC1 (stereo not drawn) | 4.97 mM⁻¹ s⁻¹ | 3.75 mM⁻¹ s⁻¹ | 5.98 mM⁻¹ s⁻¹ | 4.65 mM⁻¹ s⁻¹ |  |  |
| O=C(O)CN(CC(=O)N1CCC(Cc2ccccc2)CC1)c1ccccc1N(CC(=O)O)CC(=O)N1CCC(Cc2ccccc2)CC1 [drawing 41] |  |  |  |  |  | 0.0167 h |
| O=C(O)CN(CC(=O)N1CCCCC1)C1CCCCC1N(CC(=O)O)CC(=O)N1CCCCC1 (stereo not drawn) [drawing 29] |  |  |  |  | 285 h |  |
| O=C(O)CN(CC(=O)NC(CO)CO)C1CCCCC1N(CC(=O)O)CC(=O)NC(CO)CO (stereo not drawn) [drawing 37] |  |  |  |  | 166 h |  |
| O=C(O)CN(CC(=O)N1CCCCC1)c1ccccc1N(CC(=O)O)CC(=O)N1CCCCC1 [drawing 27] | 4.60 mM⁻¹ s⁻¹ | 3.50 mM⁻¹ s⁻¹ | 9.09 mM⁻¹ s⁻¹ | 6.78 mM⁻¹ s⁻¹ |  |  |
| CCCCNC(=O)CN(CC(=O)O)C1CCCCC1N(CC(=O)O)CC(=O)NCCCC (stereo not drawn) [drawing 26] | 4.64 mM⁻¹ s⁻¹ | 3.62 mM⁻¹ s⁻¹ | 6.55 mM⁻¹ s⁻¹ | 5.37 mM⁻¹ s⁻¹ |  |  |
| CN(C)C(=O)CN(CC(=O)O)C1CCCCC1N(CC(=O)O)CC(=O)N(C)C (stereo not drawn) [drawing 38] |  |  |  |  | 131 h |  |
| CN(C)C(=O)CN(CC(=O)O)C1CCCCC1N(CC(=O)O)CC(=O)N(C)C (stereo not drawn) [drawing 25] | 4.37 mM⁻¹ s⁻¹ | 3.43 mM⁻¹ s⁻¹ | 13.10 mM⁻¹ s⁻¹ | 9.94 mM⁻¹ s⁻¹ |  |  |
| O=C(O)CN(CC(=O)N1CCCCC1)C1CCCCC1N(CC(=O)O)CC(=O)N1CCCCC1 (stereo not drawn) [drawing 20] | 4.43 mM⁻¹ s⁻¹ | 3.49 mM⁻¹ s⁻¹ | 5.63 mM⁻¹ s⁻¹ | 4.56 mM⁻¹ s⁻¹ |  |  |
| O=C(O)CN(CC(=O)NC(CO)CO)C1CCCCC1N(CC(=O)O)CC(=O)NC(CO)CO (stereo not drawn) [drawing 24] | 5.17 mM⁻¹ s⁻¹ | 3.94 mM⁻¹ s⁻¹ | 6.01 mM⁻¹ s⁻¹ | 4.44 mM⁻¹ s⁻¹ |  |  |
| O=C(O)CN(CC(=O)N1CCC(Cc2ccccc2)CC1)C1CCCCC1N(CC(=O)O)CC(=O)N1CCC(Cc2ccccc2)CC1 (stereo not drawn) | 5.56 mM⁻¹ s⁻¹ | 4.17 mM⁻¹ s⁻¹ | 19.44 mM⁻¹ s⁻¹ | 18.16 mM⁻¹ s⁻¹ |  |  |
